Data reported in ChEMBL document CHEMBL1201862, “PubChem BioAssay data set” (2004).
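Where inhibition never reached the appropriate level, the endpoint shown equals the highest concentration tested. Otherwise, values were interpolated linearly from a five-concentration, 48-hour dose response in 96-well plates. At the GI50, growth is halved.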 Activity calls are given as the source filed them. Rule as the data show it: active = GI50 up to about 1.1 µM and inactive = higher.

Legend:
Assay in all cases: DTP human tumour cell line panel, 48 h
[1] = test system: MOLT-4
[2] = test system: SR
[3] = test system: UACC-257
[4] = test system: LXFL 529
[5] = test system: EKVX
[6] = test system: HOP-92
[7] = test system: NCI-H226
[8] = test system: HOP-62
[9] = test system: K562
[10] = test system: OVCAR-5
[11] = test system: A549
[12] = test system: CCRF-CEM
[13] = test system: SF-268
[14] = test system: OVCAR-3
[15] = test system: SK-MEL-28
[16] = test system: DMS-273
[17] = test system: TK-10
[18] = test system: A498
[19] = test system: M19-MEL
[20] = test system: UO-31
[21] = test system: SK-MEL-2
[22] = test system: HL-60
[23] = test system: KM-20L2
[24] = test system: SW-620
[25] = test system: HOP-18
[26] = test system: RXF 393
[27] = test system: U-251
[28] = test system: 786-0
[29] = test system: OVCAR-4
[30] = test system: NCI-H460
[31] = test system: OVCAR-8
[32] = test system: M14
[33] = test system: UACC-62
[34] = test system: LOX IMVI
[35] = test system: SNB-78
[36] = test system: NCI-H23
[37] = test system: COLO 205
[38] = test system: RXF 631
[39] = test system: DMS-114
[40] = test system: SF-539
[41] = test system: CAKI-1
[42] = test system: SK-MEL-5
[43] = test system: SN12C
[44] = test system: KM12
[45] = test system: HCT-15
[46] = test system: XF498
[47] = test system: HT-29
[48] = test system: SNB-19
[49] = test system: HCC 2998
[50] = test system: ACHN
[51] = test system: DLD-1
[52] = test system: SK-OV-3
[53] = test system: SNB-75
[54] = test system: Malme-3M
[55] = test system: IGROV-1
[56] = test system: SF-295
[57] = test system: RPMI-8226
[58] = test system: HCT-116
[59] = test system: NCI-H522

For `COc1ccc(C(=O)C(c2ccc(OC)cc2)C2C(=O)Oc3ccccc32)cc1` (centres undefined), the GI50 [1] was > 10 µM (inactive), the GI50 [2] was > 10 µM (inactive) and the GI50 [3] was > 10 µM (inactive). For the same compound, the GI50 [4] was > 10 µM (inactive), the GI50 [5] was > 10 µM (inactive) and the GI50 [6] was > 10 µM (inactive). For the same compound, the GI50 [7] was > 10 µM (inactive), the GI50 [8] was > 10 µM (inactive) and the GI50 [9] was > 10 µM (inactive). The GI50 [10] was > 10 µM (inactive), the GI50 [11] was > 10 µM (inactive) and the GI50 [12] was > 10 µM (inactive). For the same compound, the GI50 [13] was > 10 µM (inactive), the GI50 [14] was > 10 µM (inactive) and the GI50 [15] was > 10 µM (inactive). The GI50 [16] was > 10 µM (inactive), the GI50 [17] was > 10 µM (inactive) and the GI50 [18] was > 10 µM (inactive). The GI50 [19] was > 10 µM (inactive), the GI50 [20] was 22.5 µM (inactive) and the GI50 [21] was > 10 µM (inactive). The GI50 [22] was > 10 µM (inactive), the GI50 [23] was > 10 µM (inactive) and the GI50 [24] was > 10 µM (inactive). For the same compound, the GI50 [25] was 59.4 µM (inactive), the GI50 [26] was > 10 µM (inactive) and the GI50 [27] was > 10 µM (inactive). For the same compound, the GI50 [28] was > 10 µM (inactive), the GI50 [29] was 5.98 µM (inactive) and the GI50 [30] was > 10 µM (inactive). For the same compound, the GI50 [31] was > 10 µM (inactive), the GI50 [32] was > 10 µM (inactive) and the GI50 [33] was > 10 µM (inactive). For the same compound, the GI50 [34] was > 10 µM (inactive), the GI50 [35] was 67.9 µM (inactive) and the GI50 [36] was > 10 µM (inactive). For the same compound, the GI50 [37] was > 10 µM (inactive), the GI50 [38] was > 10 µM (inactive) and the GI50 [39] was > 10 µM (inactive). For the same compound, the GI50 [40] was > 10 µM (inactive), the GI50 [41] was > 10 µM (inactive) and the GI50 [42] was > 10 µM (inactive). For the same compound, the GI50 [43] was > 10 µM (inactive), the GI50 [44] was > 10 µM (inactive) and the GI50 [45] was greater than 10 µM. For the same compound, the GI50 [46] was > 10 µM (inactive), the GI50 [47] was > 10 µM (inactive) and the GI50 [48] was > 10 µM (inactive). For the same compound, the GI50 [49] was > 10 µM (inactive), the GI50 [50] was > 10 µM (inactive) and the GI50 [51] was > 10 µM (inactive). For the same compound, the GI50 [52] was > 10 µM (inactive), the GI50 [53] was > 10 µM (inactive) and the GI50 [54] was > 10 µM (inactive). The GI50 [55] was > 10 µM (inactive), the GI50 [56] was > 10 µM (inactive) and the GI50 [57] was > 10 µM (inactive). For the same compound, the GI50 [58] was > 10 µM (inactive) and the GI50 [59] was > 10 µM (inactive).
